Reference: patent US10722495B2, “Cyanoindazole compounds and uses thereof” (Incyte Corporation, priority 2017, dated 2020)

Molecular target: HPK1 (Homo sapiens (Human), UniProt Q92918)
Assay: HPK1 Kinase Binding Assay
Conditions: active HPK1 (SignalChem M23-11G), tracer 222, LanthaScreen Eu-Anti GST antibody, one hour incubation at 25° C.
Experimental: Example A. HPK1 Kinase Binding Assay
A stock solution of 1 mM test compound was prepared in DMSO. The compound plate was prepared by 3-fold and 11-point serial dilutions. 0.1 μL of the compound in DMSO was transferred from the compound plate to the white 384 well polystyrene plates. The assay buffer contained 50 mM HEPES, pH 7.5, 0.01% Tween-20, 5 mM MgCl2, 0.01% BSA, and 5 mM DTT. 5 μl of 4 nM active HPK1 (SignalChem M23-11G) prepared in the buffer was added to the plate. The enzyme concentration given was based on the given stock concentration reported by the vender. 5 μl of 18 nM tracer 222 (ThermoFisher PV6121) and 4 nM LanthaScreen Eu-Anti GST antibody (ThermoFisher PV5595) were added. After one hour incubation at 25° C., the plates were read on a PHERAstar FS plate reader (BMG Labtech). Ki values were determined.

Chain of HPK1 (Q92918 1-346): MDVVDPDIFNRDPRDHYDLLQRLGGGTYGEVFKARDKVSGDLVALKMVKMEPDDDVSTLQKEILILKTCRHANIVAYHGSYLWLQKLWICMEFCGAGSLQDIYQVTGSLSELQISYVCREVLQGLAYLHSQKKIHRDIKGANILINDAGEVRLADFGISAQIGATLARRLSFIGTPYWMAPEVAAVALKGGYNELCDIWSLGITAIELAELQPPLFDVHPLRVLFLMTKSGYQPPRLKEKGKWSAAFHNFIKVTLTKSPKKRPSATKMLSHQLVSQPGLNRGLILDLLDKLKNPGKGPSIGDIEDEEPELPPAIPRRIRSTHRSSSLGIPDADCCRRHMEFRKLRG

Ki | Structure (SMILES)
≤ 100 nM | CNCc1cc(C)c(-c2cc3c(-c4cnn(-c5ccccc5Cl)c4)n[nH]c3cc2C#N)c(F)c1 [Example 5, 3-(1-(2-Chlorophenyl)-1H-pyrazol-4-yl)-5-(2-fluoro-6-methyl-4-((methylamino)methyl)phenyl)-1H-indazole-6-carbonitrile]
≤ 100 nM | CNCc1cc(C)c(-c2cc3c(-c4ccc(C)nc4)n[nH]c3cc2C#N)c(F)c1 [Example 34, 5-(2-Fluoro-6-methyl-4-((methylamino)methyl)phenyl)-3-(6-methylpyridin-3-yl)-1H-indazole-6-carbonitrile]
≤ 100 nM | CNCc1cc(C)c(-c2cc3c(-c4ccc(C5(C#N)CC5)cc4)n[nH]c3cc2C#N)c(F)c1 [Example 20, 3-(4-(1-Cyanocyclopropyl)phenyl)-5-(2-fluoro-6-methyl-4-((methylamino)methyl)phenyl)-1H-indazole-6-carbonitrile]
≤ 100 nM | CNCc1cc(C)c(-c2cc3c(-c4ccc(C(=O)NC)c(F)c4)n[nH]c3cc2C#N)c(F)c1 [Example 17, 4-(6-Cyano-5-(2-fluoro-6-methyl-4-((methylamino)methyl)phenyl)-1H-indazol-3-yl)-2-fluoro-N-methylbenzamide]
≤ 100 nM | CCn1cc(-c2n[nH]c3cc(C#N)c(-c4c(C)cc(CNC)cc4F)cc23)cn1 [Example 1, 3-(1-Ethyl-1H-pyrazol-4-yl)-5-(2-fluoro-6-methyl-4-((methylamino)methyl)phenyl)-1H-indazole-6-carbonitrile]
≤ 100 nM | Cc1ccccc1-c1cc2c(-c3cnn(C)c3)n[nH]c2cc1C#N [Example 48, 3-(1-Methyl-1H-pyrazol-4-yl)-5-o-tolyl-1H-indazole-6-carbonitrile]
≤ 100 nM | CNCc1cc(C)c(-c2cc3c(-c4ccc(C(F)(F)F)cc4)n[nH]c3cc2C#N)c(F)c1 [Example 14, 5-(2-Fluoro-6-methyl-4-((methylamino)methyl)phenyl)-3-(4-(trifluoromethyl)phenyl)-1H-indazole-6-carbonitrile]
≤ 100 nM | CNCc1cc(C)c(-c2cc3c(-c4ccc(C5CCOCC5)cc4)n[nH]c3cc2C#N)c(F)c1 [Example 39, 5-(2-Fluoro-6-methyl-4-((methylamino)methyl)phenyl)-3-(4-(tetrahydro-2H-pyran-4-yl)phenyl)-1H-indazole-6-carbonitrile]
≤ 100 nM | CC[C@@H](C)Nc1ccc(-c2n[nH]c3cc(C#N)c(-c4c(C)cc(CNC)cc4F)cc23)cn1 [Example 43, 3-(6-(((R)-sec-Butyl)amino)pyridin-3-yl)-5-(2-fluoro-6-methyl-4-((methylamino)methyl)phenyl)-1H-indazole-6-carbonitrile]
≤ 100 nM | CNCc1cc(C)c(-c2cc3c(-c4cn[nH]c4)n[nH]c3cc2C#N)c(F)c1 [Example 4, 5-(2-Fluoro-6-methyl-4-((methylamino)methyl)phenyl)-3-(1H-pyrazol-4-yl)-1H-indazole-6-carbonitrile]
≤ 100 nM | CNCc1cc(C)c(-c2cc3c(-c4ccc(C)cc4)n[nH]c3cc2C#N)c(F)c1 [Example 11, 5-(2-Fluoro-6-methyl-4-((methylamino)methyl)phenyl)-3-p-tolyl-1H-indazole-6-carbonitrile]
≤ 100 nM | CNCc1cc(C)c(-c2cc3c(-c4ccc(C(=O)NC)cc4)n[nH]c3cc2C#N)c(F)c1 [Example 8, 4-(6-Cyano-5-(2-fluoro-6-methyl-4-((methylamino)methyl)phenyl)-1H-indazol-3-yl)-N-methylbenzamide]
≤ 100 nM | CNCc1cc(C)c(-c2cc3c(-c4cnc(OC)nc4)n[nH]c3cc2C#N)c(F)c1 [Example 35, 5-(2-Fluoro-6-methyl-4-((methylamino)methyl)phenyl)-3-(2-methoxypyrimidin-5-yl)-1H-indazole-6-carbonitrile]
